{"source": "paper PMC11199504", "about": "“New hemisynthetic derivatives of sphaeropsidin phytotoxins triggering severe endoplasmic reticulum swelling in cancer cells” (Scientific Reports, 2024)", "format_in_all_cases": "cell-based", "key": {"A549": {"test_system": "A549", "assay": "MTT colorimetric assay, A549", "conditions": "Homo sapiens, 72 h treatment, mean ± SEM of six replicates of one experiment (1: 7, 13: 6 independent experiments), resistant to apoptosis, read-out: IC50 determined by MTT assays, A549", "source_text": "(§1) Cancer cell lines were obtained from either the European Collection of Cell Cultures (ECACC; Salisbury, UK) or the American Type Culture Collection (ATCC; Manassas, VA). The two glioma cell lines were the U373 (ECACC code 08061901) and Hs683 (ATCC HTB-138) cell lines. The carcinoma cell lines were the A549 non-small cell carcinoma cell line (ATCC code CCL 185) and the MCF-7 mammary breast carcinoma cell line (ATCC code HTB-22). The melanoma cell lines were the mouse B16F10 cells (ATCC code CRL-6475) and the human SKMEL-28 cells (ATCC code HTB-72). The ovarian cancer cell line A2780 and its cisplatin-resistant subline A2780cis were obtained from Sigma-Aldrich (St. Louis, MO, USA). Colon cancer HCT116 cells were obtained from ATCC (CCL-247) and the oxaliplatin-resistant subline HCT116/OxR established in the W. Berger lab[59]. The HeLa cell derivative KB-3-1 and the colchicine-selected, highly ABCB1-overexpressing subline KB-C-1 were generously donated by Dr. D. W. Shen, Bethesda, MD. RKOp53wt colon cancer cells together with the RKOp53KO (homozygous knock-out) subline[60] were generously provided by Dr. Vogelstein from John Hopkins University, Baltimore. The correct origin of all cell models was confirmed by STR during performance of the experiments. All cell lines were cultured in RPMI1640 culture medium supplemented with 10% heat-inactivated fetal bovine serum, 2% L-glutamine (0.6 mg/mL), 2% penicillin/streptomycin (200 IU/mL and 200 μg/mL) and 0.1 mg/mL gentamicin.\n(§2) The MTT (3-(4,5-dimethylthiazol-2-yl)-2,5-diphenyl tetrazolium bromide) colorimetric assay has been conducted as described previously. Briefly, cells were seeded 24 h before their treatment with each compound for a period of 72 h. The concentrations tested ranged from 10 nM to 100 µM. Each assay was conducted in sextuplicates. The number of independent experiments is mentioned in the legend of the tables."}, "SKMEL-28": {"test_system": "SKMEL-28", "assay": "MTT colorimetric assay, SKMEL-28", "conditions": "Homo sapiens, SK-MEL-28; 72 h treatment; mean ± SEM; resistant to apoptosis; read-out: IC50 determined by MTT assays, SKMEL-28", "source_text": "as §1, §2"}, "U373": {"test_system": "U373", "assay": "MTT colorimetric assay, U373", "conditions": "Homo sapiens, U373 MG; 72 h treatment; mean ± SEM; resistant to apoptosis; read-out: IC50 determined by MTT assays, U373", "source_text": "as §1, §2"}, "MCF7": {"test_system": "MCF7", "assay": "MTT colorimetric assay, MCF7", "conditions": "Homo sapiens, 72 h treatment, mean ± SEM, sensitive to apoptosis, read-out: IC50 determined by MTT assays, MCF7", "source_text": "as §1, §2"}, "Hs683": {"test_system": "Hs683", "assay": "MTT colorimetric assay, Hs683", "conditions": "Homo sapiens, Hs 683; 72 h treatment; mean ± SEM; sensitive to apoptosis; read-out: IC50 determined by MTT assays, Hs683", "source_text": "as §1, §2"}, "B16F10": {"test_system": "B16F10", "assay": "MTT colorimetric assay, B16F10", "conditions": "Mus musculus, B16-F10; 72 h treatment; mean ± SEM; sensitive to apoptosis; read-out: IC50 determined by MTT assays, B16F10", "source_text": "as §1, §2"}, "[1]": {"test_system": "A549, SKMEL-28, U373, MCF7, Hs683, B16F10", "assay": "MTT colorimetric assay, mean of the six cell lines", "conditions": "for IC50: mean over the six cell lines, 72 h treatment, read-out: IC50 determined by MTT assays, Mean", "source_text": "as §1, §2"}, "A2780": {"test_system": "A2780", "assay": "MTT assay, A2780 (parental sensitive)", "conditions": "Homo sapiens, A2780, 72 h, read-out: IC50 determined by MTT assays, A2780", "source_text": "as §1, §2\n(§3) SI Table 1: IC50 determined by MTT assays. Mean concentration (± standard deviation) in µM required to\n(§4) reduce the viability of cells by 50% after a 72 h treatment relative to the control.\n(§5) Parental sensitive models Drug-resistant models"}, "Hct116": {"test_system": "Hct116", "assay": "MTT assay, Hct116 (parental sensitive)", "conditions": "Homo sapiens, HCT-116, 72 h, read-out: IC50 determined by MTT assays, Hct116", "source_text": "as §1, §2, §3, §4, §5"}, "RKO/P53wt": {"test_system": "RKO/P53wt", "assay": "MTT assay, RKO/P53wt (parental sensitive)", "conditions": "72 h, read-out: IC50 determined by MTT assays, RKO/P53wt", "source_text": "as §1, §2, §3, §4, §5"}, "KB-3-1": {"test_system": "KB-3-1", "assay": "MTT assay, KB-3-1 (parental sensitive)", "conditions": "Homo sapiens, KB 3-1, 72 h, read-out: IC50 determined by MTT assays, KB-3-1", "source_text": "as §1, §2, §3, §4, §5"}, "[2]": {"test_system": "Parental sensitive models", "assay": "MTT assay, mean of parental sensitive models", "conditions": "72 h, read-out: IC50 determined by MTT assays, mean of parental sensitive models", "source_text": "as §1, §2, §3, §4, §5"}, "A2780R": {"test_system": "A2780R", "assay": "MTT assay, A2780R (cisplatin-resistant)", "conditions": "72 h, read-out: IC50 determined by MTT assays, A2780R", "source_text": "as §1, §2, §3, §4, §5"}, "Hct116/OxR": {"test_system": "Hct116/OxR", "assay": "MTT assay, Hct116/OxR (oxaliplatin-resistant)", "conditions": "Homo sapiens, HCT-116, 72 h, read-out: IC50 determined by MTT assays, Hct116/OxR", "source_text": "as §1, §2, §3, §4, §5"}, "KB-C-1": {"test_system": "KB-C-1", "assay": "MTT assay, KB-C-1 (ABCB1-overexpressing)", "conditions": "KBC-1, 72 h, read-out: IC50 determined by MTT assays, KB-C-1", "source_text": "as §1, §2, §3, §4, §5"}, "Drug-resistant models": {"test_system": "Drug-resistant models", "assay": "MTT assay, mean of drug-resistant models", "conditions": "72 h, read-out: IC50 determined by MTT assays, mean of drug-resistant models", "source_text": "as §1, §2, §3, §4, §5"}}, "note": "Where two headings read alike, the source gives them in different places."}
{"smiles": "CC1(C=CCCCc2ccc3ccc4cccc5ccc2c3c45)C=C2C(=O)C3(O)OC(=O)C4(CCCC(C)(C)C34)C2(O)CC1", "note": "(centres unmarked) [Compound 13]", "values": [{"measurement": "IC50", "setting": "A549", "result": "380 ± 30", "unit": "nM"}, {"measurement": "IC50", "setting": "SKMEL-28", "result": "310 ± 10", "unit": "nM"}, {"measurement": "IC50", "setting": "U373", "result": "570 ± 80", "unit": "nM"}, {"measurement": "IC50", "setting": "MCF7", "result": "300 ± 20", "unit": "nM"}, {"measurement": "IC50", "setting": "Hs683", "result": "350 ± 20", "unit": "nM"}, {"measurement": "IC50", "setting": "B16F10", "result": "290 ± 10", "unit": "nM"}, {"measurement": "IC50", "setting": "[1]; 72 h", "result": 300, "unit": "nM"}, {"measurement": "IC50 fold lower than compound 1", "setting": "[1]; cancer cell panel, MTT", "result": "5–10 times"}, {"measurement": "IC50", "setting": "[1]", "result": "370 ± 40", "unit": "nM"}, {"measurement": "IC50", "setting": "A2780", "result": "1600 ± 20", "unit": "nM"}, {"measurement": "IC50", "setting": "Hct116", "result": "1000 ± 100", "unit": "nM"}, {"measurement": "IC50", "setting": "RKO/P53wt", "result": 1100, "unit": "nM"}, {"measurement": "IC50", "setting": "KB-3-1", "result": "1900 ± 50", "unit": "nM"}, {"measurement": "IC50", "setting": "[2]", "result": 1000, "unit": "nM"}, {"measurement": "IC50", "setting": "A2780R", "result": "1600 ± 90", "unit": "nM"}, {"measurement": "IC50", "setting": "Hct116/OxR", "result": "800 ± 50", "unit": "nM"}, {"measurement": "IC50", "setting": "KB-C-1", "result": "3200 ± 600", "unit": "nM"}, {"measurement": "IC50", "setting": "Drug-resistant models", "result": 2000, "unit": "nM"}]}
{"smiles": "C=C[C@]1(C)C=C2C(=O)[C@@]3(O)OC(=O)[C@@]4(CCCC(C)(C)[C@H]34)[C@@]2(O)CC1", "note": "[Compound 1, sphaeropsidin A, reference compound]", "values": [{"measurement": "IC50", "setting": "A549", "result": "1710 ± 260", "unit": "nM"}, {"measurement": "IC50", "setting": "SKMEL-28", "result": "2320 ± 150", "unit": "nM"}, {"measurement": "IC50", "setting": "U373", "result": "2130 ± 170", "unit": "nM"}, {"measurement": "IC50", "setting": "MCF7", "result": "2410 ± 350", "unit": "nM"}, {"measurement": "IC50", "setting": "Hs683", "result": "2310 ± 230", "unit": "nM"}, {"measurement": "IC50", "setting": "B16F10", "result": "1550 ± 270", "unit": "nM"}, {"measurement": "IC50", "setting": "[1]; 72 h", "result": "2070 ± 150", "unit": "nM"}, {"measurement": "IC50", "setting": "A2780", "result": "2400 ± 500", "unit": "nM"}, {"measurement": "IC50", "setting": "Hct116", "result": "3400 ± 500", "unit": "nM"}, {"measurement": "IC50", "setting": "RKO/P53wt", "result": "1900 ± 300", "unit": "nM"}, {"measurement": "IC50", "setting": "KB-3-1", "result": "5400 ± 1000", "unit": "nM"}, {"measurement": "IC50", "setting": "[2]", "result": 3000, "unit": "nM"}, {"measurement": "IC50", "setting": "A2780R", "result": "2400 ± 100", "unit": "nM"}, {"measurement": "IC50", "setting": "Hct116/OxR", "result": "1700 ± 400", "unit": "nM"}, {"measurement": "IC50", "setting": "KB-C-1", "result": "8100 ± 700", "unit": "nM"}, {"measurement": "IC50", "setting": "Drug-resistant models", "result": 4000, "unit": "nM"}]}
{"smiles": "CC1(C=CCCCc2ccc3ccc4cccc5ccc2c3c45)C=C2C(O)C3(O)OC(=O)C4(CCCC(C)(C)C34)C2(O)CC1", "note": "(centres unmarked) [Compound 16]", "values": [{"measurement": "IC50", "setting": "A549", "result": "6610 ± 80", "unit": "nM"}, {"measurement": "IC50", "setting": "SKMEL-28", "result": "7240 ± 70", "unit": "nM"}, {"measurement": "IC50", "setting": "U373", "result": "8880 ± 190", "unit": "nM"}, {"measurement": "IC50", "setting": "MCF7", "result": "5980 ± 190", "unit": "nM"}, {"measurement": "IC50", "setting": "Hs683", "result": "7340 ± 200", "unit": "nM"}, {"measurement": "IC50", "setting": "B16F10", "result": "5110 ± 420", "unit": "nM"}, {"measurement": "IC50", "setting": "[1]; 72 h", "result": "6860 ± 530", "unit": "nM"}, {"measurement": "IC50", "setting": "A2780", "result": "7700 ± 900", "unit": "nM"}, {"measurement": "IC50", "setting": "Hct116", "result": "7100 ± 200", "unit": "nM"}, {"measurement": "IC50", "setting": "RKO/P53wt", "result": "5600 ± 200", "unit": "nM"}, {"measurement": "IC50", "setting": "KB-3-1", "result": "13800 ± 1400", "unit": "nM"}, {"measurement": "IC50", "setting": "[2]", "result": 8000, "unit": "nM"}, {"measurement": "IC50", "setting": "A2780R", "result": "8300 ± 300", "unit": "nM"}, {"measurement": "IC50", "setting": "Hct116/OxR", "result": "6600 ± 1300", "unit": "nM"}, {"measurement": "IC50", "setting": "KB-C-1", "result": "15200 ± 1300", "unit": "nM"}, {"measurement": "IC50", "setting": "Drug-resistant models", "result": 9000, "unit": "nM"}]}
